Test results from ChEMBL document CHEMBL1154822, “Synthesis and antiproliferative activity of 7-azaindirubin-3'-oxime, a 7-aza isostere of the natural indirubin pharmacophore” (J Nat Prod, 2009).

What was measured:
Assay type in all cases: functional
[1] = tested on: CCRF-CEM; experiment: Cytotoxicity against human CCRF-CEM cells assessed as cell growth at 1 uM after 1 to 11 days by MTT assay; conditions: read-out: Activity
[2] = tested on: SF-268; experiment: Cytotoxicity against human SF268 cells assessed as cell growth at 0.1 uM after 1 to 11 days by MTT assay; conditions: read-out: Activity
[3] = tested on: BT-549; experiment: Cytotoxicity against human BT549 cells assessed as cell growth at 10 uM after 1 to 11 days by MTT assay; conditions: read-out: Activity
[4] = tested on: COLO 205; experiment: Cytotoxicity against human COLO205 cells after 1 to 11 days by MTT assay
[5] = tested on: SNB-75; experiment: Cytotoxicity against human SNB75 cells assessed as cell growth at 100 uM after 1 to 11 days by MTT assay; conditions: read-out: Activity
[6] = tested on: MDA-MB-231; experiment: Cytotoxicity against human MDA-MB-231 cells assessed as cell growth at 10 uM after 1 to 11 days by MTT assay; conditions: read-out: Activity
[7] = tested on: RXF 393; experiment: Cytotoxicity against human […] cells assessed as cell growth at 10 uM after 1 to 11 days by MTT assay; conditions: read-out: Activity
[8] = tested on: HCT-15; experiment: Cytotoxicity against human HCT15 cells assessed as cell growth at 0.1 uM after 1 to 11 days by MTT assay; conditions: read-out: Activity
[9] = tested on: K562; experiment: Cytotoxicity against human K562 cells assessed as cell growth at 10 uM after 1 to 11 days by MTT assay; conditions: read-out: Activity
[10] = tested on: K562; experiment: Cytotoxicity against human K562 cells assessed as cell growth at 1 mM after 1 to 11 days by MTT assay; conditions: read-out: Activity
[11] = tested on: NCI-H226; experiment: Cytotoxicity against human NCI-H226 cells after 1 to 11 days by MTT assay
[12] = tested on: HCC 2998; experiment: Cytotoxicity against human HCC2998 cells assessed as cell growth at 100 uM after 1 to 11 days by MTT assay; conditions: read-out: Activity
[13] = tested on: MDA-MB-231; experiment: Cytotoxicity against human MDA-MB-231 cells assessed as cell growth at 1 mM after 1 to 11 days by MTT assay; conditions: read-out: Activity
[14] = tested on: HCT-15; experiment: Cytotoxicity against human HCT15 cells assessed as cell growth at 1 mM after 1 to 11 days by MTT assay; conditions: read-out: Activity
[15] = tested on: UACC-62; experiment: Cytotoxicity against human UACC62 cells after 1 to 11 days by MTT assay
[16] = tested on: KM12; experiment: Cytotoxicity against human KM12 cells assessed as cell growth at 1 uM after 1 to 11 days by MTT assay; conditions: read-out: Activity
[17] = tested on: NCI-H322M; experiment: Cytotoxicity against human NCI-H322M cells assessed as cell growth at 1 uM after 1 to 11 days by MTT assay; conditions: read-out: Activity
[18] = tested on: U-251; experiment: Cytotoxicity against human U251 cells after 1 to 11 days by MTT assay
[19] = tested on: SK-MEL-5; experiment: Cytotoxicity against human SK-MEL-5 cells after 1 to 11 days by MTT assay
[20] = tested on: A549; experiment: Cytotoxicity against human A549 cells assessed as cell growth at 1 uM after 1 to 11 days by MTT assay; conditions: read-out: Activity
[21] = tested on: OVCAR-5; experiment: Cytotoxicity against human OVCAR5 cells assessed as cell growth at 10 uM after 1 to 11 days by MTT assay; conditions: read-out: Activity
[22] = tested on: PC-3; experiment: Cytotoxicity against human PC3 cells after 1 to 11 days by MTT assay
[23] = tested on: SK-MEL-28; experiment: Cytotoxicity against human SK-MEL-28 cells assessed as cell growth at 1 uM after 1 to 11 days by MTT assay; conditions: read-out: Activity
[24] = tested on: NCI-H522; experiment: Cytotoxicity against human NCI-H522 cells after 1 to 11 days by MTT assay
[25] = tested on: NCI-H226; experiment: Cytotoxicity against human NCI-H226 cells assessed as cell growth at 1 uM after 1 to 11 days by MTT assay; conditions: read-out: Activity
[26] = tested on: HCC 2998; experiment: Cytotoxicity against human HCC2998 cells assessed as cell growth at 10 uM after 1 to 11 days by MTT assay; conditions: read-out: Activity
[27] = tested on: T47D; experiment: Cytotoxicity against human T47D cells assessed as cell growth at 100 uM after 1 to 11 days by MTT assay; conditions: read-out: Activity
[28] = tested on: HCT-116; experiment: Cytotoxicity against human HCT116 cells assessed as cell growth at 1 uM after 1 to 11 days by MTT assay; conditions: read-out: Activity
[29] = tested on: HCT-116; experiment: Cytotoxicity against human HCT116 cells assessed as cell growth at 100 uM after 1 to 11 days by MTT assay; conditions: read-out: Activity
[30] = tested on: OVCAR-4; experiment: Cytotoxicity against human OVCAR4 cells after 1 to 11 days by MTT assay
[31] = tested on: U-251; experiment: Cytotoxicity against human U251 cells assessed as cell growth at 1 mM after 1 to 11 days by MTT assay; conditions: read-out: Activity
[32] = tested on: MDA-MB-468; experiment: Cytotoxicity against human MDA-MB-468 cells after 1 to 11 days by MTT assay
[33] = tested on: SK-MEL-28; experiment: Cytotoxicity against human SK-MEL-28 cells assessed as cell growth at 100 uM after 1 to 11 days by MTT assay; conditions: read-out: Activity
[34] = tested on: T47D; experiment: Cytotoxicity against human T47D cells after 1 to 11 days by MTT assay
[35] = tested on: HOP-62; experiment: Cytotoxicity against human HOP62 cells assessed as cell growth at 1 mM after 1 to 11 days by MTT assay; conditions: read-out: Activity
[36] = tested on: T47D; experiment: Cytotoxicity against human T47D cells assessed as cell growth at 0.1 uM after 1 to 11 days by MTT assay; conditions: read-out: Activity
[37] = tested on: MCF7; experiment: Cytotoxicity against human MCF7 cells assessed as cell growth at 10 uM after 1 to 11 days by MTT assay; conditions: read-out: Activity
[38] = tested on: UACC-62; experiment: Cytotoxicity against human UACC62 cells assessed as cell growth at 10 uM after 1 to 11 days by MTT assay; conditions: read-out: Activity
[39] = tested on: SR; experiment: Cytotoxicity against human SR cells after 1 to 11 days by MTT assay
[40] = tested on: MCF7; experiment: Cytotoxicity against human MCF7 cells assessed as cell growth at 100 uM after 1 to 11 days by MTT assay; conditions: read-out: Activity
[41] = tested on: HT-29; experiment: Cytotoxicity against human HT-29 cells after 1 to 11 days by MTT assay
[42] = tested on: PC-3; experiment: Cytotoxicity against human PC3 cells assessed as cell growth at 0.1 uM after 1 to 11 days by MTT assay; conditions: read-out: Activity
[43] = tested on: HT-29; experiment: Cytotoxicity against human HT-29 cells assessed as cell growth at 10 uM after 1 to 11 days by MTT assay; conditions: read-out: Activity
[44] = read-out: LC50 (the source's name)

O=C1Nc2ncccc2/C1=C1/Nc2ccccc2/C1=N\O
growth at 1 µM [1]: 76% | growth at 0.1 µM [2]: 100% | growth at 10 µM [3]: 69% | GI50 [4]: 1.73 µM | TGI [4]: > 100 µM | CC50 [4, 44]: > 100 µM | growth at 100 µM [5]: 14% | growth at 10 µM [6]: 76% | growth at 10 µM [7]: 55% | growth at 0.1 µM [8]: 95% | growth at 10 µM [9]: 66% | growth at 1000 µM [10]: 25% | GI50 [11]: 1.14 µM | TGI [11]: > 100 µM | CC50 [11, 44]: > 100 µM | growth at 100 µM [12]: 39% | growth at 1000 µM [13]: 2% | growth at 1000 µM [14]: 24% | GI50 [15]: 3.49 µM | TGI [15]: > 100 µM | CC50 [15, 44]: > 100 µM | growth at 1 µM [16]: 91% | growth at 1 µM [17]: 82% | GI50 [18]: > 100 µM | TGI [18]: > 100 µM | CC50 [18, 44]: > 100 µM | GI50 [19]: 9.53 µM | TGI [19]: > 100 µM | CC50 [19, 44]: > 100 µM | growth at 1 µM [20]: 95% | growth at 10 µM [21]: 94% | GI50 [22]: 6.82 µM | TGI [22]: > 100 µM | CC50 [22, 44]: > 100 µM | growth at 1 µM [23]: 87% | GI50 [24]: > 100 µM | TGI [24]: > 100 µM | CC50 [24, 44]: > 100 µM | growth at 1 µM [25]: 84% | growth at 10 µM [26]: 88% | growth at 100 µM [27]: 16% | growth at 1 µM [28]: 107% | growth at 100 µM [29]: 46% | GI50 [30]: 9.1 µM | TGI [30]: > 100 µM | CC50 [30, 44]: > 100 µM | growth at 1000 µM [31]: 68% | GI50 [32]: 3.01 µM | TGI [32]: > 100 µM | CC50 [32, 44]: > 100 µM | growth at 100 µM [33]: 54% | GI50 [34]: 2.03 µM | TGI [34]: > 100 µM | CC50 [34, 44]: > 100 µM | growth at 1000 µM [35]: 74% | growth at 0.1 µM [36]: 100% | growth at 10 µM [37]: 86% | growth at 10 µM [38]: 77% | GI50 [39]: 6.65 µM | TGI [39]: > 100 µM | CC50 [39, 44]: > 100 µM | growth at 100 µM [40]: 52% | GI50 [41]: 88.8 µM | TGI [41]: > 100 µM | CC50 [41, 44]: > 100 µM | growth at 0.1 µM [42]: 96% | growth at 10 µM [43]: 99%
